Experimental data: ChEMBL document CHEMBL1152527, “Tessaric acid derivatives induce G2/M cell cycle arrest in human solid tumor cell lines” (2009)
Active and inactive are the calls of the source. No cut-off for these calls is given here.

Key:
Assay type in all cases: functional
[1] = tested on: T47D; experiment: Growth inhibition of human T47D cells after 48 hrs by sulforhodamine B assay
[2] = tested on: A2780; experiment: Growth inhibition of human A2780 cells after 48 hrs by sulforhodamine B assay; details: A2780, 48 h
[3] = tested on: SW1573; experiment: Growth inhibition of human SW1573 cells after 48 hrs by sulforhodamine B assay; details: SW1573, 48 h
[4] = tested on: WiDr; experiment: Growth inhibition of human WiDr cells after 48 hrs by sulforhodamine B assay
[5] = tested on: HeLa; experiment: Growth inhibition of human HeLa cells after 48 hrs by sulforhodamine B assay
[6] = tested on: HBL-100; experiment: Growth inhibition of human HBL100 cells after 48 hrs by sulforhodamine B assay; details: HBL-100, 48 h
[7] = tested on: T47D; experiment: Cell cycle arrest in human T47D cells assessed as increase in accumulation at sub G0 phase at 15 to 35 uM treated for 24 hrs measured after 24 hrs of drug washout by propidium iodide staining-based FACS analysis
[8] = tested on: SW1573; experiment: Cell cycle arrest in human SW1573 cells assessed as accumulation at G2/M phase at 35 uM after 24 hrs by propidium iodide staining-based FACS analysis
[9] = tested on: SW1573; experiment: Cell cycle arrest in human SW1573 cells assessed as decrease in accumulation at G0/G1 phase at 35 uM after 24 hrs by propidium iodide staining-based FACS analysis
[10] = tested on: T47D; experiment: Cell cycle arrest in human T47D cells assessed as decrease in accumulation at S phase at 35 uM after 24 hrs by propidium iodide staining-based FACS analysis
[11] = tested on: SW1573; experiment: Cell cycle arrest in human SW1573 cells assessed as accumulation at G2/M phase at 15 uM after 24 hrs by propidium iodide staining-based FACS analysis
[12] = tested on: SW1573; experiment: Cell cycle arrest in human SW1573 cells assessed as decrease in accumulation at S phase at 15 uM after 24 hrs by propidium iodide staining-based FACS analysis
[13] = tested on: SW1573; experiment: Cell cycle arrest in human SW1573 cells assessed as accumulation at S phase at 35 uM after 24 hrs by propidium iodide staining-based FACS analysis
[14] = tested on: HeLa; experiment: Cell cycle arrest in human HeLa cells assessed as accumulation at G2/M phase at 35 uM after 24 hrs by propidium iodide staining-based FACS analysis
[15] = tested on: HeLa; experiment: Cell cycle arrest in human HeLa cells assessed as decrease in accumulation at S phase at 15 uM after 24 hrs by propidium iodide staining-based FACS analysis
[16] = tested on: HeLa; experiment: Cell cycle arrest in human HeLa cells assessed as accumulation at S phase at 35 uM after 24 hrs by propidium iodide staining-based FACS analysis
[17] = tested on: WiDr; experiment: Cell cycle arrest in human WiDr cells assessed as increase in accumulation at sub G0 phase at 15 to 35 uM treated for 24 hrs measured after 24 hrs of drug washout by propidium iodide staining-based FACS analysis
[18] = tested on: WiDr; experiment: Cell cycle arrest in human WiDr cells assessed as accumulation at G2/M phase at 35 uM after 24 hrs by propidium iodide staining-based FACS analysis
[19] = tested on: HeLa; experiment: Cell cycle arrest in human HeLa cells assessed as decrease in accumulation at G0/G1 phase at 35 uM after 24 hrs by propidium iodide staining-based FACS analysis
[20] = tested on: WiDr; experiment: Cell cycle arrest in human WiDr cells assessed as decrease in accumulation at S phase at 35 uM after 24 hrs by propidium iodide staining-based FACS analysis
[21] = tested on: HeLa; experiment: Cell cycle arrest in human HeLa cells assessed as accumulation at G2/M phase at 15 uM after 24 hrs by propidium iodide staining-based FACS analysis
[22] = tested on: T47D; experiment: Cell cycle arrest in human T47D cells assessed as accumulation at G2/M phase at 35 uM after 24 hrs by propidium iodide staining-based FACS analysis

In the case of `C=C(C(=O)O)[C@@H]1CC[C@@]2(C)CCCC(C)=C2C1`, the pGI50 [1] is reported as 4, the GI50 ([1]; read-out: GI50) is reported as over 100 µM and the pGI50 [2] is reported as 4. For the same compound, the GI50 ([2]; read-out: GI50) was over 100 µM, the pGI50 [3] was 4 and the GI50 ([3]; read-out: GI50) was over 100 µM. It also gave a pGI50 [4] of 4, a GI50 ([4]; read-out: GI50) of over 100 µM and a pGI50 [5] of 4. For the same compound, the GI50 ([5]; read-out: GI50) was over 100 µM, the pGI50 [6] was 4 and the GI50 ([6]; read-out: GI50) was over 100 µM.
For `C=C(C(=O)OC)[C@@H]1CC[C@@]2(C)CCC[C@@](C)(O)[C@@H]2C1` [VACHANIC ACID METHYLESTER], the pGI50 [1] was 4, the GI50 ([1]; read-out: GI50) was over 100 µM and the pGI50 [2] was 4. It also gave a GI50 ([2]; read-out: GI50) of over 100 µM, a pGI50 [3] of 4 and a GI50 ([3]; read-out: GI50) of over 100 µM. The pGI50 [4] was 4, the GI50 ([4]; read-out: GI50) was over 100 µM and the pGI50 [5] was 4. For the same compound, the GI50 ([5]; read-out: GI50) was over 100 µM, the pGI50 [6] was 4.13 and the GI50 ([6]; read-out: GI50) was 74 µM.
Work on `CC[C@@]1(O)C(=O)OCc2c1cc1n(c2=O)Cc2cc3ccccc3nc2-1` [CAMPTOTHECIN] yielded a GI50 ([1]; read-out: GI50) of 1.9 µM, a GI50 ([2]; read-out: GI50) of 0.46 µM and a GI50 ([3]; read-out: GI50) of 0.21 µM. The GI50 ([4]; read-out: GI50) was 1.7 µM, the GI50 ([5]; read-out: GI50) was 1.3 µM and the GI50 ([6]; read-out: GI50) was 0.23 µM.
In the case of `O=c1[nH]cc(F)c(=O)[nH]1` [FLUOROURACIL], the GI50 ([1]; read-out: GI50) is reported as 29 µM, the GI50 ([2]; read-out: GI50) is reported as 4.4 µM and the GI50 ([3]; read-out: GI50) is reported as 4.1 µM. For the same compound, the GI50 ([4]; read-out: GI50) was 50 µM, the GI50 ([5]; read-out: GI50) was 19 µM and the GI50 ([6]; read-out: GI50) was 5.5 µM.
`C=C(C(=O)OC)[C@@H]1CCC2=C[C@H](O)C[C@H](C)[C@@]2(C)C1` was tested, and the Activity [7] was “Active”, the Activity [8] was “Active” and the GI50 ([1]; read-out: GI50) was 11 µM. For the same compound, the GI50 ([1]; read-out: pGI50 (converted)) was 4.97 µM, the GI50 ([2]; read-out: GI50) was 11 µM and the GI50 ([2]; read-out: pGI50 (converted)) was 4.95 µM. The Activity [9] was “Active”, the Activity [10] was “Active” and the Activity [11] was “Active”. The Activity [12] was “Active”, the Activity [13] was “Active” and the Activity [14] was “Active”. For the same compound, the Activity [15] was “Active”, the Activity [16] was “Active” and the GI50 ([3]; read-out: GI50) was 5 µM. For the same compound, the GI50 ([3]; read-out: pGI50 (converted)) was 5.3 µM, the Activity [17] was “Active” and the Activity [18] was “Active”. For the same compound, the GI50 ([4]; read-out: GI50) was 17 µM, the GI50 ([4]; read-out: pGI50 (converted)) was 4.77 µM and the GI50 ([5]; read-out: GI50) was 29 µM. The GI50 ([5]; read-out: pGI50 (converted)) was 4.54 µM, the Activity [19] was “Active” and the GI50 ([6]; read-out: GI50) was 12 µM. For the same compound, the GI50 ([6]; read-out: pGI50 (converted)) was 4.91 µM, the Activity [20] was “Active” and the Activity [21] was “Active”. The Activity [22] was “Active”.
Compound `C=C(C(=O)O)[C@@H]1CC[C@@]2(C)CCC[C@@](C)(O)[C@@H]2C1` [ILICIC ACID] has a pGI50 [1] of 4, a GI50 ([1]; read-out: GI50) of over 100 µM and a pGI50 [2] of 4. The GI50 ([2]; read-out: GI50) was over 100 µM, the pGI50 [3] was 4 and the GI50 ([3]; read-out: GI50) was over 100 µM. For the same compound, the pGI50 [4] was 4, the GI50 ([4]; read-out: GI50) was over 100 µM and the pGI50 [5] was 4. For the same compound, the GI50 ([5]; read-out: GI50) was over 100 µM, the pGI50 [6] was 4 and the GI50 ([6]; read-out: GI50) was over 100 µM.
